Measured values reported in the NIST ThermoML archive (doi:10.1021/je700140j).
Numbers after ± are expanded uncertainties.

Assays:
[1] = for surface tension liquid-gas: Ring tensiometer; for mass density / viscosity: 100.8 kPa, Liquid
[2] = refractive index (Na D-line) (dimensionless); conditions: 101.33 kPa, Liquid, Standard Abbe refractometry
[3] = xn = mol fraction of the nth substance listed; conditions: x1 = 1; for surface tension liquid-gas: Ring tensiometer; for mass density / viscosity: 100.8 kPa, Liquid
[4] = refractive index (Na D-line) (dimensionless); xn = mol fraction of the nth substance listed; conditions: 100.8 kPa, Liquid, Standard Abbe refractometry, x1 = 1

Structure (SMILES) | surface tension liquid-gas ([1]; 298.15 K) [mN/m] | mass density ([1]; 298.15 K) [kg/m3] | viscosity ([1]; 298.15 K) [mPa·s] | surface tension liquid-gas ([1]; 308.15 K) [mN/m] | mass density ([1]; 308.15 K) [kg/m3] | viscosity ([1]; 308.15 K) [mPa·s] | surface tension liquid-gas ([1]; 318.15 K) [mN/m] | mass density ([1]; 318.15 K) [kg/m3] | viscosity ([1]; 318.15 K) [mPa·s] | refractive index ([2]; 298.15 K) | refractive index ([2]; 308.15 K) | refractive index ([2]; 318.15 K) | surface tension liquid-gas ([3]; 298.15 K) [mN/m] | mass density ([3]; 298.15 K) [kg/m3] | viscosity ([3]; 298.15 K) [mPa·s] | surface tension liquid-gas ([3]; 308.15 K) [mN/m] | mass density ([3]; 308.15 K) [kg/m3] | viscosity ([3]; 308.15 K) [mPa·s] | surface tension liquid-gas ([3]; 318.15 K) [mN/m] | mass density ([3]; 318.15 K) [kg/m3] | also measured
OCCc1ccccc1 [2-phenylethanol] | 39.43 ± 0.58 | 1016.2 ± 0.39 | 11.4 ± 0.14 | 38.93 ± 0.57 | 1008.63 ± 0.37 | 7.518 ± 0.098 | 38.35 ± 0.56 | 1000.98 ± 0.36 | 5.232 ± 0.071 | 1.53269 ± 0.00037 | 1.52852 ± 0.00037 | 1.52427 ± 0.00037 |  |  |  |  |  |  |  |  | 
OCc1ccccc1 [benzenemethanol] | 38.63 ± 0.54 | 1041.4 ± 0.29 | 5.555 ± 0.071 | 37.73 ± 0.53 | 1033.6 ± 0.27 | 4.093 ± 0.054 | 36.75 ± 0.52 | 1025.72 ± 0.26 | 3.12 ± 0.041 | 1.53843 ± 0.00033 | 1.53421 ± 0.00033 | 1.52994 ± 0.00033 |  |  |  |  |  |  |  |  | 
OCc1ccccc1 [benzenemethanol] + OCCc1ccccc1 |  |  |  |  |  |  |  |  |  |  |  |  | 38.63 ± 0.54 | 1041.4 ± 0.29 | 5.555 ± 0.071 | 37.73 ± 0.53 | 1033.6 ± 0.27 | 4.093 ± 0.054 | 36.75 ± 0.52 | 1025.72 ± 0.26 | viscosity ([3]; 318.15 K): 3.12 ± 0.041 mPa·s; refractive index ([4]; 298.15 K): 1.53843 ± 0.00033; refractive index ([4]; 308.15 K): 1.53421 ± 0.00033; refractive index ([4]; 318.15 K): 1.52994 ± 0.00033
CC(C)O [propan-2-ol] | 20.85 ± 0.32 | 781.17 ± 0.61 | 2.082 ± 0.028 | 20.05 ± 0.31 | 772.53 ± 0.63 | 1.55 ± 0.021 | 19.35 ± 0.31 | 763.52 ± 0.65 | 1.181 ± 0.016 | 1.37507 ± 0.00033 | 1.37063 ± 0.00033 | 1.3661 ± 0.00033 |  |  |  |  |  |  |  |  | 
CC(C)O [propan-2-ol] + OCCc1ccccc1 |  |  |  |  |  |  |  |  |  |  |  |  | 20.85 ± 0.32 | 781.17 ± 0.61 | 2.082 ± 0.028 | 20.05 ± 0.31 | 772.53 ± 0.63 | 1.55 ± 0.021 | 19.35 ± 0.31 | 763.52 ± 0.65 | viscosity ([3]; 318.15 K): 1.181 ± 0.016 mPa·s; refractive index ([4]; 298.15 K): 1.37507 ± 0.00033; refractive index ([4]; 308.15 K): 1.37063 ± 0.00033; refractive index ([4]; 318.15 K): 1.3661 ± 0.00033
CC(C)O [propan-2-ol] + OCc1ccccc1 |  |  |  |  |  |  |  |  |  |  |  |  | 20.85 ± 0.32 | 781.17 ± 0.61 | 2.082 ± 0.028 | 20.05 ± 0.31 | 772.53 ± 0.63 | 1.55 ± 0.021 | 19.35 ± 0.31 | 763.52 ± 0.65 | viscosity ([3]; 318.15 K): 1.181 ± 0.016 mPa·s; refractive index ([4]; 298.15 K): 1.37507 ± 0.00033; refractive index ([4]; 308.15 K): 1.37063 ± 0.00033; refractive index ([4]; 318.15 K): 1.3661 ± 0.00033
